pIC50: −log10 of the molar value.
Experiments:
CDK5/p25 = biological target: T1, CDK5/p25 (Homo sapiens, UniProt Q00535); assay: Enzymatic assay for CDK5 (LANCE Ultra kinase assay, FRET based); assay type: biochemical; conditions: ATP at Km
T1 construct: purchased Invitrogen PR8543B
Summary of the method: (§1)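 Compounds tested as 8 doses in 4-fold steps against CDK2/Cyclin A ([…]) or CDK5/p25 ([…]), with ATP at its Km and 68 nM ULight-MBP substrate. After 60 min at 23° C., EDTA plus Eu-labelled anti-phospho-MBP added; TR-FRET (615/665 nm) read after another 60 min.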

CDK1/Cyclin B = biological target: T2, CDK1/Cyclin B (Homo sapiens, UniProt P06493); assay: Enzymatic assay for CDK1 (LANCE Ultra kinase assay, FRET based); assay type: biochemical; conditions: ATP at Km; read-out: CDK1 enzymatic activity IC50
T2 construct: purchased Invitrogen PR4768C
T2 sequence (P06493 whole entry): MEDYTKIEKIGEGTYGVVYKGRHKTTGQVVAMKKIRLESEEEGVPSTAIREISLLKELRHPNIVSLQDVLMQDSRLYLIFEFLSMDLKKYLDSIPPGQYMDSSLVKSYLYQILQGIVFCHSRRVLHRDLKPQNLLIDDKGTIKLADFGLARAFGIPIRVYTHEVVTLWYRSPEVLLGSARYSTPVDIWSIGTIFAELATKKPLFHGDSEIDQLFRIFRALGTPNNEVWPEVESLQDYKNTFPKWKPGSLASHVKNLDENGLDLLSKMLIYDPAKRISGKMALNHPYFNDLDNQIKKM
T2 sequence (P14635 whole entry partner): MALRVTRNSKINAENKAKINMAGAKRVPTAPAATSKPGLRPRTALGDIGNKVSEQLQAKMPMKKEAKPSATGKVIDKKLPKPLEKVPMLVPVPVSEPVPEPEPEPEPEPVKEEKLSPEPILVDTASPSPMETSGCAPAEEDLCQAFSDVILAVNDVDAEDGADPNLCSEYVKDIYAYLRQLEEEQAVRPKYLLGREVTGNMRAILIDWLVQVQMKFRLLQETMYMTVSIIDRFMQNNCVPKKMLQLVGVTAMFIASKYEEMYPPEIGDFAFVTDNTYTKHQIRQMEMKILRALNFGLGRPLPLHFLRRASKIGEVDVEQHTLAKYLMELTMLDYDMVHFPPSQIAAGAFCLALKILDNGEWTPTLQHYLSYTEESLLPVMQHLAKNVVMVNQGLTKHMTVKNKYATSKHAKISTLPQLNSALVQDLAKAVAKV
Summary of the method: (§2)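 Kinase activity of each purified CDK/cyclin complex was followed in a FRET format where a Europium anti-phospho-antibody recognises phosphorylated ULight-labeled peptide. ATP was held at its Km.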

OVCAR-3 = OVCAR-3 viability assay (CellTiter-Glo, 72 hours); assay type: cell-based; conditions: Homo sapiens; OVCAR-3 cells
Summary of the method: (§3)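 Each line was plated at its own density (1×10^4, 5×10^3 and 1×10^3 cells/well for MV4-11, OVCAR-3 and A2780 respectively) in RPMI-1640 with 10% FBS. Treatment with compound, 0.0015 uM to 10 uM and DMSO under 0.1%, lasted 72 h. Surviving cells were quantified by CellTiter-Glo.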

A2780 = A2780 viability assay (CellTiter-Glo, 72 hours); assay type: cell-based; conditions: Homo sapiens; A2780 cells
Summary of the method: as §3

CDK2/Cyclin A = biological target: T3, CDK2/Cyclin A (Homo sapiens, UniProt P24941); assay: Enzymatic assay for CDK2 (LANCE Ultra kinase assay, FRET based); assay type: biochemical; conditions: ATP at Km
T3 construct: purchased Invitrogen PV6290
Summary of the method: as §1

MV4-11 = assay: Cellular MV4-11 viability assay (CellTiter-Glo, 72 hours); assay type: cell-based; conditions: Homo sapiens; MV4-11 cells
Protocol: Human […] cell line, MV4-11_(ATCC, Cat #CRL-9591), NSCLC (Non-small cell lung cancer) cell line H460 (ATCC, Cat #HTB-177), A2780 (ECACC, Cat #93112519) and OVCAR-3(ATCC, Cat #HTB-161) were obtained from ATCC. Cells were grown in RPMI-1640 media (Invitrogen, Cat #22400-089) supplemented with 10% FBS (Invitrogen, Cat #10099141) and 1% penicillin/streptomycin (Invitrogen, Cat #15070063) and cultured at 37° C., 5% CO2 in a humidified chamber. All cell lines were routinely tested for mycoplasma.
To effect of the CDK7 inhibitor to inhibit the growth of target cancer cells, viability assay were conducted a 72 hour time period. Briefly, the candidate cell line was plated in 96 well plate at the following density of cells respectively. 1×10^4 cells/well for MV4-11, 5×10^3 for H460 and OVCAR-3, and 1×10^3 for A2780. After 24 hours, the cells were treated with various concentrations of the compound (ranging from 0.0015 uM to 10 uM). DMSO solvent without compound served as a control and final DMSO concentration lest than 0.1%. After 72 hours of incubation at 37° C., 5% CO2 incubator, cells were analyzed for the viability using the CellTiter-Glo Luminescent Cell Viability Assay (Promega, Cat #G7570). All viability assays were performed in duplicate and Luminescence was read using an Envision (Perkin Elmer, USA). Data was analyzed using XLfit software.

CDK7/Cyclin H/MNAT1 = biological target: T4, CDK7/Cyclin H/MNAT1 (Homo sapiens, UniProt P50613); assay: Enzymatic assay for CDK7 (LANCE Ultra kinase assay, FRET based); assay type: biochemical; conditions: for pIC50: ATP at Km
T4 construct: purchased Invitrogen PR6749B
T4 sequence (P50613 whole entry): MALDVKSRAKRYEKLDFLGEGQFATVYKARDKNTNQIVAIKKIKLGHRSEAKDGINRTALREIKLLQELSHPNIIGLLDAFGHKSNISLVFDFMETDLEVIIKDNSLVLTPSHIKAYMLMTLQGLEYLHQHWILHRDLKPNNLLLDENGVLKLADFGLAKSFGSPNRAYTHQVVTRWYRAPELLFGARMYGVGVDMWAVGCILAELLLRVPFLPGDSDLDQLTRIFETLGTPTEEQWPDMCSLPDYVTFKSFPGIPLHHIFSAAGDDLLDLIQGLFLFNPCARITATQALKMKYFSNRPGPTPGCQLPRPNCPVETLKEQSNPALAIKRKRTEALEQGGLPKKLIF
T4 sequence (P51946 whole entry partner): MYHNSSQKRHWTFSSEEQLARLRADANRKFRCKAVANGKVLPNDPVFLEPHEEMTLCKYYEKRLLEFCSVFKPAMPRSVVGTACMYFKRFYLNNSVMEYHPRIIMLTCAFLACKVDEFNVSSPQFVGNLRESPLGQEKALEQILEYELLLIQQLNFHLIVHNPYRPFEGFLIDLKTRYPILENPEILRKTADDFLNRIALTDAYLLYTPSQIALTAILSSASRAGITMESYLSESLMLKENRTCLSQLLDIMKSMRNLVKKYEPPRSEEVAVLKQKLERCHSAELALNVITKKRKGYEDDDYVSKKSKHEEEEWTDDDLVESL
T4 sequence (P51948 whole entry partner): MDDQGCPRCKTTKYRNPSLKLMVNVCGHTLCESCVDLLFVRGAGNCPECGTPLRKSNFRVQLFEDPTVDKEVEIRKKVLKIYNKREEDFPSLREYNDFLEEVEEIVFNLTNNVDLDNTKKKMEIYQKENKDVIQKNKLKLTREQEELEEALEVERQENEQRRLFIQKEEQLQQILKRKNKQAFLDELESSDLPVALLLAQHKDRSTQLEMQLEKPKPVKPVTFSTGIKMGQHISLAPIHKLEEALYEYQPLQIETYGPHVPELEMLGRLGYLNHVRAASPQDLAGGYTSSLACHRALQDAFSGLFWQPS
Summary of the method: as §2

T1 sequence (Q00535 whole entry): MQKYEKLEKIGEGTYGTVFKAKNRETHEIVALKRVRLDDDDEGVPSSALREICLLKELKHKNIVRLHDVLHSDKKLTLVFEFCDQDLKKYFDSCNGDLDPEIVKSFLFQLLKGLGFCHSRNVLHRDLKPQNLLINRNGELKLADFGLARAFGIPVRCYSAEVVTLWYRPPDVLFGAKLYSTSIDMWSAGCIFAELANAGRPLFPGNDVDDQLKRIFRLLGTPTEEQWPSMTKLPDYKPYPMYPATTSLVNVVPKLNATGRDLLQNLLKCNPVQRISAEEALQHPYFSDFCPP
T1 sequence (Q15078 99-307 partner limits assumed): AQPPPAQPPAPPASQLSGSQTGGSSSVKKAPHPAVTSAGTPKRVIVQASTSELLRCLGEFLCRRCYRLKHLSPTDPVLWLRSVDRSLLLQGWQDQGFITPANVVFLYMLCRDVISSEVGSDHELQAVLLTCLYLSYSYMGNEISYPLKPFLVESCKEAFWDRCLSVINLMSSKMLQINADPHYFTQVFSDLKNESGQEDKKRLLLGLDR

Compound | pIC50 (CDK5/p25) | pIC50 (CDK1/Cyclin B) | pIC50 (OVCAR-3) | pIC50 (A2780) | pIC50 (CDK2/Cyclin A) | pIC50 (MV4-11) | pIC50 (CDK7/Cyclin H/MNAT1) | CDK1/CDK7: Selectivity of CDK7 inhibition over CDK1 inhibition (CDK7/Cyclin H/MNAT1) | CDK2/CDK7: Selectivity of CDK7 inhibition over CDK2 inhibition (CDK7/Cyclin H/MNAT1) | CDK5/CDK7: Selectivity of CDK7 inhibition over CDK5 inhibition (CDK7/Cyclin H/MNAT1)
CC(C)c1cnn2c(NCc3ccccc3-c3nccc4cc(NC(=O)/C=C/CN(C)C)ccc34)nc(N3CCC(O)CC3)nc12 [Compound 31] | < 6.00 | < 6.00 | > 6.00 | > 6.00 | < 6.00 | > 6.00 | > 7.00 | A (A indicates [fold] > 500) | A (A indicates [fold] > 500) | A (A indicates [fold] > 500)
COC/C=C/C(=O)Nc1ccc2c(-c3ccccc3CNc3nc(N4CCC(N)CC4)nc4c(C(C)C)cnn34)nccc2c1 [Compound 54] | < 6.00 | < 6.00 | > 6.00 | > 6.00 | < 6.00 | > 6.00 | > 7.00 | A (A indicates [fold] > 500) | A (A indicates [fold] > 500) | A (A indicates [fold] > 500)
CC(C)c1cnn2c(NCc3ccccc3-c3nccc4cc(NC(=O)/C=C/CN5CCCCC5)ccc34)nc(NC[C@H]3CCNC[C@@H]3O)nc12 [Compound 76] | < 6.00 | < 6.00 | > 6.00 | > 6.00 | < 6.00 | > 6.00 | > 7.00 | A (A indicates [fold] > 500) | A (A indicates [fold] > 500) | A (A indicates [fold] > 500)
CC(C)c1cnn2c(NCc3ccccc3-c3nccc4cc(NC(=O)/C=C/CN(C)C)ccc34)nc(N3CCC(CO)CC3)nc12 [Compound 29] | < 6.00 | < 6.00 | > 6.00 | > 6.00 | < 6.00 | > 6.00 | 6.00 to 7.00 | B (B indicates 50 < [fold] ≤ 500) | B (B indicates 50 < [fold] ≤ 500) | B (B indicates 50 < [fold] ≤ 500)
C=C(C)C(=O)Nc1ccc2c(-c3ccccc3CNc3nc(NC[C@H]4CCNC[C@@H]4O)nc4c(C(C)C)cnn34)nccc2c1 [Compound 66] | < 6.00 | < 6.00 | > 6.00 | > 6.00 | < 6.00 | > 6.00 | > 7.00 | A (A indicates [fold] > 500) | A (A indicates [fold] > 500) | A (A indicates [fold] > 500)
C=C(F)C(=O)Nc1ccc2c(-c3ccccc3CNc3nc(NC[C@H]4CCNC[C@@H]4O)nc4c(C(C)C)cnn34)nccc2c1 [Compound 64] | < 6.00 | < 6.00 | > 6.00 | > 6.00 | < 6.00 | > 6.00 | > 7.00 | A (A indicates [fold] > 500) | A (A indicates [fold] > 500) | A (A indicates [fold] > 500)
CC(C)c1cnn2c(NCc3ccccc3-c3nccc4cc(NC(=O)/C=C/CN(C)C)ccc34)nc(NCCC(C)(C)O)nc12 [Compound 35] | < 6.00 | < 6.00 | > 6.00 | > 6.00 | < 6.00 | > 6.00 | > 7.00 | B (B indicates 50 < [fold] ≤ 500) | B (B indicates 50 < [fold] ≤ 500) | B (B indicates 50 < [fold] ≤ 500)
CC(C)c1cnn2c(NCc3ccccc3-c3nccc4cc(NC(=O)/C=C/CN(C)C)ccc34)nc(NCC3CCNCC3)nc12 [Compound 45] | < 6.00 | < 6.00 | > 6.00 | > 6.00 | < 6.00 | > 6.00 | > 7.00 | A (A indicates [fold] > 500) | A (A indicates [fold] > 500) | A (A indicates [fold] > 500)
C=C(F)C(=O)Nc1cccc2cc(-c3cccc(C)c3CNc3nc(NC[C@H]4CCNC[C@@H]4O)nc4c(C(C)C)cnn34)[nH]c12 [Compound 78] | < 6.00 | < 6.00 | 5.00 to 6.00 | > 6.00 | < 6.00 | > 6.00 | > 7.00 | A (A indicates [fold] > 500) | A (A indicates [fold] > 500) | B (B indicates 50 < [fold] ≤ 500)
CC(C)c1cnn2c(NCc3ccccc3-c3nccc4cc(NC(=O)/C=C/CN(C)C)ccc34)nc(N3CCCC(O)CC3)nc12 (racemic) [Compound 38] | < 6.00 | < 6.00 | > 6.00 | > 6.00 | < 6.00 | > 6.00 | 6.00 to 7.00 | B (B indicates 50 < [fold] ≤ 500) | B (B indicates 50 < [fold] ≤ 500) | B (B indicates 50 < [fold] ≤ 500)
CC(C)c1cnn2c(NCc3ccccc3-c3nccc4cc(NC(=O)C5=CCCC5)ccc34)nc(NC[C@H]3CCNC[C@@H]3O)nc12 [Compound 65] | < 6.00 | < 6.00 | > 6.00 | > 6.00 | < 6.00 | > 6.00 | > 7.00 | A (A indicates [fold] > 500) | A (A indicates [fold] > 500) | A (A indicates [fold] > 500)
CC(C)c1cnn2c(NCc3ccccc3-c3nccc4cc(NC(=O)/C=C/CN(C)C)ccc34)nc(NC3CCC(O)CC3)nc12 (centres unmarked) [Compound 36] | < 6.00 | < 6.00 | > 6.00 | > 6.00 | < 6.00 | > 6.00 | > 7.00 | A (A indicates [fold] > 500) | A (A indicates [fold] > 500) | A (A indicates [fold] > 500)
C=CC(=O)Nc1ccc2c(-c3ccccc3CNc3nc(N4CCC(N)CC4)nc4c(C(C)C)cnn34)nccc2c1 [Compound 46] | < 6.00 | < 6.00 | > 6.00 | > 6.00 | < 6.00 | > 6.00 | > 7.00 | A (A indicates [fold] > 500) | A (A indicates [fold] > 500) | A (A indicates [fold] > 500)
CC(C)c1cnn2c(NCc3ccccc3-c3nccc4cc(NC(=O)/C=C/CN(C)C)ccc34)nc(NCC3CCOCC3)nc12 [Compound 43] | < 6.00 | < 6.00 | > 6.00 | > 6.00 | < 6.00 | > 6.00 | 6.00 to 7.00 | B (B indicates 50 < [fold] ≤ 500) | B (B indicates 50 < [fold] ≤ 500) | B (B indicates 50 < [fold] ≤ 500)

Reference: patent US12606561B2, “Substituted pyrazolo[1,5-a][1,3,5]triazines as CDK inhibitors” (QURIENT CO., LTD., priority 2018, dated 2026)
